Patent publication US20230399341A1, “7-PHENYL SUBSTITUTED 2-AMINOQUINAZOLINE INHIBITORS OF HPK1” (MERCK SHARP & DOHME LLC, priority 2020, published 2023)

The molecules below were run against T1, Human HPK1, catalytic domain (Homo sapiens, UniProt Q92918) (assay: HPK1-SLP76 TR-FRET Assay). Conditions: 75 pM HPK1, ATP 10 uM, SLP76 10 nM, 30 min pre-incubation, 60 min reaction.
T1 sequence (Q92918 1-346): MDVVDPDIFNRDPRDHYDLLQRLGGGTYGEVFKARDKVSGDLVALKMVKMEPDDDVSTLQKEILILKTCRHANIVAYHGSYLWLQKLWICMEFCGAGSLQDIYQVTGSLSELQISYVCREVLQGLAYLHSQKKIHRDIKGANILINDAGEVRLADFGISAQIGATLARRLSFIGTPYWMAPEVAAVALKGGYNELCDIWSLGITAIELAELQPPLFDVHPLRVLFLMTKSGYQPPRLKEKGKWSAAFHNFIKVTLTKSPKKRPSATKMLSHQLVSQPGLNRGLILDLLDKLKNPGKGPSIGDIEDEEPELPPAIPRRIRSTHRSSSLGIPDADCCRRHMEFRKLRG
Type: biochemical

For `COc1cc2c(cc1Nc1ncc3ccc(NC[C@@H]4CCC(=O)N4)cc3n1)CN(C)CC2` [Compound 3-45, (5S)-5-[({2-[(6-methoxy-2-meth-yl-1,2,3,4-tetrahydroisoquinolin-7-yl)amino]quinazolin-7-yl}-amino)methyl]pyrrolidin-2-one], which IC50 is on record?
The IC50 was 292 nM.

Which IC50 does the source give for `COc1cc2c(cc1Nc1ncc3ccc(N[C@H]4CC[C@@H](O)CC4)cc3n1)CN(C)CC2` [Compound 3-46, (1s,4s)-4-((2-((6-methoxy-2-methyl-1,2,3,4-tetrahydroiso-quinolin-7-yl)amino)quinazolin-7-yl)amino)cyclohexan-1-ol] here?
Its IC50 is 118 nM.

`COc1cc2c(cc1Nc1ncc3ccc(N[C@H]4CCCOCC4)cc3n1)CN(C)CC2` [Compound 3-47, (S)-N2-(6-methoxy-2-methyl-1,2,3,4-tetrahydroisoquinolin-7-yl)-N7-(oxepan-4-yl)quinaz-oline-2,7-diamine] was tested. Which IC50 did it give?
The IC50 was 170 nM.

Which IC50 does the source give for `COc1cc2c(cc1Nc1ncc3ccc(N[C@H]4CCN(C)C4=O)cc3n1)CN(C)CC2` [Compound 3-49, (3S)-3-({2-[(6-methoxy-2-meth-yl-1,2,3,4-tetrahydroisoquinolin-7-yl)amino]quinazolin-7-yl}-amino)-1-methylpyrrolidin-2-one] here?
The IC50 was 96.7 nM.

`COc1cc2c(cc1Nc1ncc3ccc(N4CCC[C@H](N5CCOC5=O)C4)cc3n1)CN(C)CC2` [Compound 3-50, 3-[(3S)-1-{2-[(6-methoxy-2-methyl-1,2,3,4-tetrahydroiso-quinolin-7-yl)amino]quinazolin-7-yl}piperidin-3-yl]-1,3-oxazol-idin-2-one] was tested. Which IC50 did it give?
The IC50 was 771 nM.

With `COc1cc2c(cc1Nc1ncc3ccc(NC4CC(OC)C4)cc3n1)CN(C)CC2` (centres unmarked) [Compound 3-51, N~7~-(3-methoxycyclobutyl)-N~2~-(6-methoxy-2-methyl-1,2,3,4-tetrahydroisoquinolin-7-yl)quinazoline-2,7-diamine] as the molecule, how does the IC50 read?
The IC50 was 234 nM.

With `COc1cc2c(cc1Nc1ncc3ccc(NCc4noc(C)n4)cc3n1)CN(C)CC2` [Compound 3-52, N~2~-(6-methoxy-2-methyl-1,2,3,4-tetrahydroisoquinolin-7-yl)-N~7~-[(5-methyl-1,2,4-oxadiazol-3-yl)methyl]quinaz-oline-2,7-diamine] as the molecule, how does the IC50 read?
The IC50 was 97.9 nM.

How did the IC50 turn out when `COc1cc2c(cc1Nc1ncc3ccc(N4CC(C(N)=O)C4)cc3n1)CN(C)CC2` [Compound 3-53, 1-{2-[(6-methoxy-2-methyl-1,2,3,4-tetrahydroisoquinolin-7-yl)amino]quinazolin-7-yl}-azetidine-3-carboxamide] was run?
Its IC50 is 669 nM.

Which IC50 does the source give for `COc1cc2c(cc1Nc1ncc3ccc(NC4(C)COC4)cc3n1)CN(C)CC2` [Compound 3-55, N~2~-(6-methoxy-2-methyl-1,2,3,4-tetrahydroisoquinolin-7-yl)-N~7~-(3-methyloxetan-3-yl)quinazoline-2,7-diamine] here?
The IC50 was 240 nM.

`COc1cc2c(cc1Nc1ncc3ccc(N4CCn5c(C)nnc5C4)cc3n1)CN(C)CC2` [Compound 3-57, N-(6-methoxy-2-methyl-1,2,3,4-tetrahydroisoquinolin-7-yl)-7-(3-methyl-5,6-dihydro[1,2,4]-triazolo[4,3-a]pyrazin-7(8H)-yl)quinazolin-2-amine] was tested. Which IC50 did it give?
The IC50 was 799 nM.

Which IC50 does the source give for `COc1cc2c(cc1Nc1ncc3ccc(N[C@H]4CCC[C@@H]4O)cc3n1)CN(C)CC2` [Compound 3-58, (1S,2S)-2-({2-[(6-methoxy-2-methyl-1,2,3,4-tetrahydroiso-quinolin-7-yl)amino]quinazolin-7-yl}amino)cyclopentan-1-ol] here?
Its IC50 is 180 nM.

Which IC50 does the source give for `COc1cc2c(cc1Nc1ncc3ccc(NC4(C(=O)N(C)C)CCC4)cc3n1)CN(C)CC2` [Compound 3-61, 1-({2-[(6-methoxy-2-methyl-1,2,3,4-tetrahydroisoquinolin-7-yl)amino]quinazolin-7-yl}-amino)-N,N-dimethylcyclo-butane-1-carboxamide] here?
Its IC50 is 824 nM.

For `COc1cc2c(cc1Nc1ncc3ccc(NCC4(C)COC4)cc3n1)CN(C)CC2` [Compound 3-62, N~2~-(6-methoxy-2-methyl-1,2,3,4-tetrahydroisoquinolin-7-yl)-N~7-[(3-methyloxetan-3-yl)-methyl]quinazoline-2,7-diamine], which IC50 is on record?
Its IC50 is 111 nM.

Which IC50 does the source give for `COc1cc2c(cc1Nc1ncc3ccc(NCc4cnsn4)cc3n1)CN(C)CC2` [Compound 3-63, N~2~-(6-methoxy-2-methyl-1,2,3,4-tetrahydroisoquinolin-7-yl)-N~7-[(1,2,5-thiadiazol-3-yl)-methyl]quinazoline-2,7-diamine] here?
Its IC50 is 38.3 nM.

With `COc1cc2c(cc1Nc1ncc3ccc(NCC(=O)N4CCOCC4)cc3n1)CN(C)CC2` [Compound 3-64, 2-({2-[(6-methoxy-2-methyl-1,2,3,4-tetrahydroisoquinolin-7-yl)amino]quinazolin-7-yl}-amino)-1-(morpholin-4-yl)ethan-1-one] as the molecule, how does the IC50 read?
The IC50 was 115 nM.

How did the IC50 turn out when `COc1cc2c(cc1Nc1ncc3ccc(NCC(=O)N4CCCC4)cc3n1)CN(C)CC2` [Compound 3-65, 2-({2-[(6-methoxy-2-methyl-1,2,3,4-tetrahydroisoquinolin-7-yl)amino]quinazolin-7-yl}-amino)-1-(pyrrolidin-1-yl)ethan-1-one] was run?
The IC50 was 136 nM.

Which IC50 does the source give for `COc1cc2c(cc1Nc1ncc3ccc(NC4(C(=O)N(C)C)CC4)cc3n1)CN(C)CC2` [Compound 3-66, 1-({2-[(6-methoxy-2-methyl-1,2,3,4-tetrahydroisoquinolin-7-yl)amino]quinazolin-7-yl}-amino)-N,N-dimethylcyclopro-pane-1-carboxamide] here?
Its IC50 is 294 nM.

`COc1cc2c(cc1Nc1ncc3ccc(N[C@@H]4COC[C@@H]4F)cc3n1)CN(C)CC2` [Compound 3-67, N~7~-[(3R,4R)-4-fluorooxolan-3-yl]-N~2~-(6-methoxy-2-meth-yl-1,2,3,4-tetrahydroisoquinolin-7-yl)quinazoline-2,7-diamine] was tested. Which IC50 did it give?
The IC50 was 108 nM.

How did the IC50 turn out when `COCC1CN(c2ccc3cnc(Nc4cc5c(cc4OC)CCN(C)C5)nc3c2)C1` [Compound 3-68, 7-[3-(methoxymethyl)azetidin-1-yl]-N-(6-methoxy-2-methyl-1,2,3,4-tetrahydroisoquinolin-7-yl)quinazolin-2-amine] was run?
The IC50 was 520 nM.

With `CNC(=O)CNc1ccc2cnc(Nc3cc4c(cc3OC)CCN(C)C4)nc2c1` [Compound 3-70, N~2~-{2-[(6-methoxy-2-methyl-1,2,3,4-tetrahydroisoquinolin-7-yl)amino]quinazolin-7-yl}-N-methylglycinamide] as the molecule, how does the IC50 read?
The IC50 was 392 nM.

Which IC50 does the source give for `COc1cc2c(cc1Nc1ncc3ccc(NCC(=O)N(C)C)cc3n1)CN(C)CC2` [Compound 3-71, N~2~-{2-[(6-methoxy-2-meth-yl-1,2,3,4-tetrahydroisoquinolin-7-yl)amino]quinazolin-7-yl}-N,N-dimethylglycinamide] here?
Its IC50 is 91.7 nM.

`COc1cc2c(cc1Nc1ncc3ccc(NCc4cc(C)n(C)n4)cc3n1)CN(C)CC2` [Compound 3-72, N~7~-[(1,5-dimethyl-1H-pyrazol-3-yl)methyl]-N~2~-(6-methoxy-2-methyl-1,2,3,4-tetra-hydroisoquinolin-7-yl)quinaz-oline-2,7-diamine] was tested. Which IC50 did it give?
Its IC50 is 290 nM.

How did the IC50 turn out when `COc1cc2c(cc1Nc1ncc3ccc(N4CCN(C5CC5)C(=O)C4)cc3n1)CN(C)CC2` [Compound 3-73, 1-cyclopropyl-4-{2-[(6-methoxy-2-methyl-1,2,3,4-tetrahydroiso-quinolin-7-yl)amino]quinazolin-7-yl}piperazin-2-one] was run?
Its IC50 is 719 nM.

Which IC50 does the source give for `COc1cc2c(cc1Nc1ncc3ccc(NC4C5COCC54)cc3n1)CN(C)CC2` (centres unmarked) [Compound 3-74, N~2~-(6-methoxy-2-methyl-1,2,3,4-tetrahydroisoquinolin-7-yl)-N~7~-(3-oxabicyclo[3.1.0]-hexan-6-yl)quinazoline-2,7-diamine] here?
Its IC50 is 138 nM.

How did the IC50 turn out when `C[C@H]1COC(=O)N1c1cc(N)c2cnc(Nc3ccc(S(C)(=O)=O)cc3)nc2c1` [Compound 3-76, (S)-3-(5-amino-2-((4-(methyl-sulfonyl)phenyl)amino)quinaz-olin-7-yl)-4-methyloxazolidin-2-one] was run?
The IC50 was 0.101 nM.

Which IC50 does the source give for `C[C@@H]1COC(=O)N1c1cc(N)c2cnc(Nc3ccc(S(C)(=O)=O)cc3)nc2c1` [Compound 3-77, (R)-3-(5-amino-2-((4-(methyl-sulfonyl)phenyl)amino)quinaz-olin-7-yl)-4-methyloxazolidin-2-one] here?
Its IC50 is 24.3 nM.

Which IC50 does the source give for `C[C@H]1COC(=O)N1c1cc(N)c2cnc(Nc3ccc(CS(C)(=O)=O)cc3)nc2c1` [Compound 3-78, (S)-3-(5-amino-2-((4-((methyl-sulfonyl)methyl)phenyl)amino)-quinazolin-7-yl)-4-methyloxa-zolidin-2-one] here?
Its IC50 is 0.169 nM.

With `CNC(=O)c1ccc(Nc2ncc3c(N)cc(N4C(=O)OC[C@@H]4C)cc3n2)cc1` [Compound 3-79] as the molecule, how does the IC50 read?
Its IC50 is 0.255 nM.

`COc1cc2c(cc1Nc1ncc3c(N)c(F)c(Nc4cc(CO)ccn4)cc3n1)CN(C)CC2` [Compound 3-80, [2-({5-amino-6-fluoro-2-[(6-methoxy-2-methyl-1,2,3,4-tetra-hydroisoquinolin-7-yl)amino]-quinazolin-7-yl}amino)pyridin-4-yl]methanol] was tested. Which IC50 did it give?
Its IC50 is 2.81 nM.

Which IC50 does the source give for `COc1cc2c(cc1Nc1ncc3ccc(OCc4ccc(N5CCNCC5)nc4)cc3n1)CN(C)CC2` [Compound 4-1, N-(6-methoxy-2-methyl-1,2,3,4-tetrahydroisoquin-olin-7-yl)-7-{[6-(piperazin-1-yl)pyridin-3-yl]methoxy}-quinazolin-2-amine] here?
Its IC50 is 15.2 nM.

For `COc1cc2c(cc1Nc1ncc3ccc(OCc4ccc5c(c4)CNC5)cc3n1)CN(C)CC2` [Compound 4-2, 7-[(2,3-dihydro-1H-iso-indol-5-yl)methoxy]-N-(6-methoxy-2-methyl-1,2,3,4-tetrahydroisoquinolin-7-yl)-quinazolin-2-amine], which IC50 is on record?
Its IC50 is 4.67 nM.

`COc1cc2c(cc1Nc1ncc3ccc(OCC4CCNCC4)cc3n1)CN(C)CC2` [Compound 4-3, N-(6-methoxy-2-methyl-1,2,3,4-tetrahydroisoquin-olin-7-yl)-7-[(piperidin-4-yl)methoxy]quinazolin-2-amine] was tested. Which IC50 did it give?
Its IC50 is 377 nM.
